A short description of test [1]: Visceral sensitivity: abdominal contractures produced by rectal distension after acetic acid irritation. Format: in vivo. Particulars: rat, 10 min distension, mean of five rats, placebo 23.8 ± 1.6, * p < 0.05 vs placebo. An excerpt: The first model consists in observing, in the rat, the abdominal contractures produced by a rectal distension applied to a mucous membrane which has been irritated beforehand. The number of contractures is proportional to the intensity of the pain experienced. A similar model has been described in Neurogastroenterol. and Mot. (1994), 6, 140, where it is shown that the products which decrease the perception of pain in man decrease the number of contractures observed in the rat.
Male Sprague-Dawley rats weighing 180 g are deprived of food for 12 hours. Under slight fluothane anaesthesia, an intrarectal probe is introduced (5 cm from the anus) and 1.5 ml of 1% dilute acetic acid are injected. The acid immediately flows out via the anus. This rapid contact of the acid makes it possible to irritate the mucous membrane (model for rectal colitis). 1 h 30 after irritation, a small latex balloon (diameter when empty 2 mm, length 1 cm), mounted on a polyurethane catheter (int. diameter 1 mm), is introduced into the rectum (5 cm from the anus) under slight fluothane anaesthesia. The catheter is attached to the base of the tail with adhesive tape and protected by a glass tube. The test product is administered by force feeding and the rat is then introduced into a crystallizing dish covered with a grid. The free ends of the tube and of the catheter are passed through the grid in order to carry out the dilations.
A distension is carried out 2 h 30 after irritating the rectum. The small balloon is dilated with 1.5 ml of distilled water (intracolic pressure equal to 60 mm Hg on average). Dilation is maintained for 10 minutes, during which the abdominal contractures are counted. The small balloon is then deflated by sucking off the distilled water.
They are expressed by the mean number of contractures observed with respect to five rats for the 10 minutes during which they are subjected to a distension.

Test [2] is described as follows: Ulcerative colitis induced by intracolic trinitrobenzenesulphonic acid (TNB): weight, macroscopic and histological analysis of colon. Type of test: in vivo, rat. Conditions: for Mean weight of the animals: in g. An excerpt:
A model for ulcerative colitis induced in the rat by an intracolic instillation of trinitrobenzenesulphonic acid has already been described, for example in Gut (1992), 33, 1498-1503.
The beneficial effect of a treatment on the development of this colitis can be evaluated, on the one hand, by the overall state of health of the animal, represented for example by the change in weight, and, on the other hand, by a histological study of the colon at the end of the experiment.
Male Sprague-Dawley rats (140-150 g), deprived of food since the previous day, are subjected, under general anaesthesia (isoflurane), to irritation of the mucous membrane of the distal colon (7 cm from the anus) with 1 ml of a 50 mg/ml aqueous trinitrobenzenesulphonic acid (TNB) solution. On the following day, the rats are randomized in two equal-sized groups (n=7) which then receive the treatment (placebo or product) by forcefeeding, mornings and evenings. The products are administered at 1 mg/kg p.o. twice daily.
The treatment is administered for the ten days which follow irritation of the colon. The animals are weighed every morning from D5 to D10. The animals are deprived of food on D9 and humanely killed on D10. The colons are removed and macroscopically and then histologically examined.
The macroscopic appearance of the colons was graded as follows:
Sections of the colon are fixed with formaldehyde and enclosed in paraffin blocks. 5 μm sections are prepared, stained with haemalum-eosin and evaluated by optical microscopy according to the following gradings:
The colon was divided into three mucous, submucous and muscular layers and each layer was graded according to the preceding criteria.
The sum of the gradings attributed to each substructure defines, per animal, an index which takes into account both the afflux of the inflammatory cells and the architectural distortion.

Test [3] addresses T1, 5-HT3 receptors (Mus musculus, UniProt P23979).
T1 sequence (P23979 24-489): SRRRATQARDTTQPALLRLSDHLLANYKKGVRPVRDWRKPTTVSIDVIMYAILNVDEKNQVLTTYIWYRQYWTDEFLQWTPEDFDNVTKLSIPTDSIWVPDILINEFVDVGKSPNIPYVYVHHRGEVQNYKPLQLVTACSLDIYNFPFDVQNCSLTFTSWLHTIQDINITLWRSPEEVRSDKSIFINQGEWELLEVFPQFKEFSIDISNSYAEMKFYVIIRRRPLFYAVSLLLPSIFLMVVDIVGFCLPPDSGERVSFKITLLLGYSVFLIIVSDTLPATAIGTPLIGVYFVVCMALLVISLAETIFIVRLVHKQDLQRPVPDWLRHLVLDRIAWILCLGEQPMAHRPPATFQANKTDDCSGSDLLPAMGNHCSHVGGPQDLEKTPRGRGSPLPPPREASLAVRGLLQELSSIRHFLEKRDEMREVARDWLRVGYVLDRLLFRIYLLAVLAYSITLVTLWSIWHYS
The test is described as follows: Affinity for 5-HT3 receptors, membrane preparations of NG 108-15 cells, tritiated BRL 43694 as ligand. Type of test: binding. Conditions: NG 108-15 cell membranes. Here is the method:
The affinity of the compounds for 5-HT3 receptors was measured according to the method described in Bioch. Pharmacol. (1990), 40, (7), 1541-1550, by using membrane preparations of NG 108-15 cells and tritiated BRL 43694 as specific ligand.

Test [4] has as its target T2, 5-HT3 receptors (Rattus norvegicus, UniProt P35563).
T2 construct: from tissue; host or cells: whole animal (endogenous receptor)
T2 sequence (P35563 24-483): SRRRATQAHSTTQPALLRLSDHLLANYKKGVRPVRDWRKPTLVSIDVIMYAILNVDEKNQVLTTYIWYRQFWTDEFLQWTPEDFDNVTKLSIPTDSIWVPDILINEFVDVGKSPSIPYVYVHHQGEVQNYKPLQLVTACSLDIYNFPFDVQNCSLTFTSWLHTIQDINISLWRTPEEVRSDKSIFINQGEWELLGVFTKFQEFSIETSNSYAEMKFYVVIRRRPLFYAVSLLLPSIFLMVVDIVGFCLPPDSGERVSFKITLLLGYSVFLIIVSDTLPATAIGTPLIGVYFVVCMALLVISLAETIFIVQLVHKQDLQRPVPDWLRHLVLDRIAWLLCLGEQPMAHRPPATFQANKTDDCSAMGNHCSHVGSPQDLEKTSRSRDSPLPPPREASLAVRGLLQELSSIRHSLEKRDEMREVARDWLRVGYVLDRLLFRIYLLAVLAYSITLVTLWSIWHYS
The test is described as follows: Bezold-Jarisch reflex: inhibition of bradycardia induced by serotonin (5-HT3 antagonist activity in vivo). Conditions: iv; read-out: IC50 for antagonism of serotonin-induced bradycardia. Here is the method:
The 5-HT3 antagonist activity of products was evaluated in vivo by measuring their property of inhibiting a bradycardia induced by serotonin, according to the method described in J. Pharm. & Exp. Therap. (1989), 248, 197-201.

SMILES strings stand for the structures. “And” between values parts separate entries of the source, which are not always exact repeats. Equal values may be shown once. “Also recorded” adds a separate entry of the source.

`COc1cc(N)c(Cl)cc1C(=O)N[C@@H]1CCCC[C@@H]1CN1CCC(O)CC1` (relative stereo) [Compound 2]: the “No. of contractures ± standard deviation” value in test [1] (0.3 mg/kg p.o.) was 9.2 ± 5.3.
For `COc1cc(N)c(Cl)cc1C(=O)N[C@@H]1CCCC[C@@H]1CN1CCC(CO)CC1` (relative stereo) [Compound 3], in test [1] (0.3 mg/kg p.o.), the “No. of contractures ± standard deviation” value came out at 13.2 ± 2.4.
Regarding `COc1cc(N)c(Cl)cc1C(=O)N[C@@H]1CCCC[C@@H]1CN1CCC(C)(C)CC1` (relative stereo) [Compound 4], the “No. of contractures ± standard deviation” value in test [1] (0.3 mg/kg p.o.) amounted to 10.6 ± 4.2.
Take `COc1cc(N)c(Cl)cc1C(=O)N[C@@H]1CCCC[C@@H]1CN1CCC(C(C)(C)C)CC1` (relative stereo) [Compound 5]: the “No. of contractures ± standard deviation” value in test [1] (0.3 mg/kg p.o.) was found to be 10.6 ± 3.8.
In the case of `CC1CCN(C[C@H]2CCCC[C@H]2NC(=O)c2cc(Cl)c(N)cc2OC(C)C)CC1` (relative stereo) [Compound 7], in test [1] (0.3 mg/kg p.o.), the “No. of contractures ± standard deviation” value turned out to be 7.6 ± 0.5.
Consider `COc1cc(N)c(Cl)cc1C(=O)N[C@@H]1CCCC[C@@H]1CN1CCC(C)CC1` [Compound 1], for which the “No. of contractures ± standard deviation” value in test [1] (0.3 mg/kg p.o.) was determined as 3.4 ± 2.1.
`CC1CCN(C[C@H]2CCCC[C@H]2NC(=O)c2cc(Cl)c(N)cc2OCC2CC2)CC1` [Compound 6]: the “No. of contractures ± standard deviation” value was 3.3 ± 1.9 in test [1] (0.1 mg/kg p.o.), 7.3 ± 2.6 in test [1] (0.3 mg/kg p.o.) and 9.4 in test [1] (1 mg/kg p.o.). Besides, the “change in weight versus placebo” value in test [2] (1 mg/kg p.o. twice daily, TNB colitis) is “significantly improved change in weight”. The “Mean weight of the animals” value is recorded as 153 ± 15 in test [2] (5 days after treatment with TNB, 1 mg/kg p.o. twice daily, placebo 130 ± 8); 177 ± 23 in test [2] (6 days after treatment with TNB, 1 mg/kg p.o. twice daily, placebo 139 ± 18, * p < 0.05); 186 ± 27 in test [2] (7 days after treatment with TNB, 1 mg/kg p.o. twice daily, placebo 142 ± 20, * p < 0.05); 194 ± 34 in test [2] (8 days after treatment with TNB, 1 mg/kg p.o. twice daily, placebo 147 ± 23, * p < 0.05); 206 ± 39 in test [2] (9 days after treatment with TNB, 1 mg/kg p.o. twice daily, placebo 158 ± 30, * p < 0.05). For the same compound, the “Index (histological; sum of gradings of mucous, submucous and muscular layers per animal)” value in test [2] (D10, 1 mg/kg p.o. twice daily, each index value shared by the number of animals in the column beside it) is 11 and 3 and 1 and 0. Further, the “Number of animals at macroscopic colon Stage 0” value in test [2] (Stage 0: no trace of irritation, D10, 1 mg/kg p.o. twice daily, placebo 0) amounted to 0. For the same compound, the “Number of animals at macroscopic colon Stage 1” value in test [2] (Stage 1: slightly vasodilated mucous membrane, D10, placebo 0) was 1. Also, in test [2] (Stage 2: vasodilated mucous membrane and adhesions, D10, placebo 0), the “Number of animals at macroscopic colon Stage 2” value was 4. The “Number of animals at macroscopic colon Stage 3” value in test [2] (Stage 3: haemorrhagic and sclerotic mucous membrane and adhesions, D10, placebo 3) turned out to be 2. Besides, the “Number of animals at macroscopic colon Stage 4” value in test [2] (Stage 4: ulcerated and haemorrhagic mucous membrane and adhesions, D10, placebo 3) is 0. Besides, the “seriousness of the macroscopic colon lesions versus placebo” value in test [2] (chi-squared test, Stages 1 and 2 vs Stages 3 and 4) is “seriousness of the lesions is significantly greater with the placebo than with Compound 6; also recorded: lesional appearance of the colon is less serious”. In test [2] (chi-squared test, indices 0 to 5 vs 6 to 12), the “inflammatory state of the colon (histology) versus placebo” value is reported as “inflammatory state is significantly more serious treated with the placebo than treated with Compound 6; also recorded: decrease in the afflux of the inflammatory cells”. Besides, the “size of the class combining histological indices 0 to 5” value in test [2] (number of animals, placebo 0) came to 5. The “size of the class of macroscopic Stages 1 and 2” value in test [2] (number of animals, placebo 0) is recorded as 5. Further, the “size of the class combining histological indices 6 to 12” value in test [2] (number of animals, placebo 6) is on record as 2. The “size of the class of macroscopic Stages 3 and 4” value in test [2] (number of animals, placebo 6) worked out at 2.
With `CC1CCN(C[C@H]2CCCC[C@H]2NC(=O)c2cc(Cl)c(N)cc2OC2CCCC2)CC1` [Compound 8], in test [1] (0.3 mg/kg p.o.), the “No. of contractures ± standard deviation” value came to 9.2 ± 1.3.
As for `CC1CCN(C[C@H]2CCCC[C@@H]2NC(=O)c2cc(Cl)c(N)cc2OCC2CC2)CC1` [Compound 9], the “No. of contractures ± standard deviation” value in test [1] (0.3 mg/kg p.o.) is on record as 6.3 ± 3.5.
As for `Cc1nccn1CC1CCc2c(c3ccccc3n2C)C1=O` (stereo not shown) [ondansetron], at 5-HT3 receptors [3], the affinity corresponds to a Ki of 16 nM. Besides, on 5-HT3 receptors [4], the ED50 was about 3 µg/kg.

In general, Ki refers to a dissociation constant, usually derived from enzyme kinetics or from competition with a known ligand. Higher therefore signals weaker binding.

Source of the values: patent US5804589A, “Use of N-cyclohexyl benzamides for treating bowel disorders” (Laboratoires Jacques Logeais, priority 1995, dated 1998).
